Values of other authors in patent US20210023267A1, “POLYMER-PERMEATED GRAFTS AND METHODS OF MAKING AND USING THE SAME” (BIOAESTHETICS CORPORATION, priority 2018, published 2021).
In brackets after ≈: the same amount, converted by molar mass. Read-outs that look alike come from different tables or passages of the source.

Test system: S. aureus

CN[C@H](CC(C)C)C(=O)N[C@H]1C(=O)N[C@@H](CC(N)=O)C(=O)N[C@H]2C(=O)N[C@H]3C(=O)N[C@H](C(=O)N[C@H](C(=O)O)c4cc(O)cc(O)c4-c4cc3ccc4O)[C@H](O)c3ccc(c(Cl)c3)Oc3cc2cc(c3O[C@@H]2O[C@H](CO)[C@@H](O)[C@H](O)[C@H]2O[C@H]2C[C@](C)(N)[C@H](O)[C@H](C)O2)Oc2ccc(cc2Cl)[C@H]1O [vancomycin]
minimum inhibitory concentration (S. aureus): 1 µg/mL (≈ 0.69 µM) | minimum inhibitory concentration (S. aureus strains with complete resistance to vancomycin): 16 µg/mL (≈ 11 µM)
